Key:
[1] = test system: sedge, umbrella; experiment: Test B flood; assay type: in vivo, Cyperus difformis; details: 250 g ai/ha, visual rating on 0 to 100 scale (0 no effect, 100 complete control), 13 to 15 days
Method: (§1) Seeds selected from rice (Oryza sativa), sedge, umbrella (small-flower umbrella sedge Cyperus difformis), ducksalad (Heteranthera limosa), and barnyardgrass (Echinochloa crus-galli) were grown to the 2-leaf stage for testing. At time of treatment, test pots were flooded to 3 cm above the soil surface, treated by application of test compounds directly to the paddy water, and then maintained at that water depth for the duration of the test.
(§2) Treated plants and controls were maintained in a greenhouse for 13 to 15 days, after which time all species were compared to controls and visually evaluated. Plant response ratings, summarized in Table B, are based on a scale of 0 to 100 where 0 is no effect and 100 is complete control. A dash (-) response means no test result.

[2] = test system: corn; experiment: Test A postemergence; assay type: in vivo, Zea mays
How it was run: (§3)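 Visual injury rating, 0–100 (0 no effect, 100 complete control), vs untreated controls ~10 days after treatment in greenhouse. Pre: directed soil spray on seeded loam/sand. Post: 2–10 cm plants, 1–2 leaf stage. Formulation: non-phytotoxic solvent mix + surfactant.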

[3] = test system: rice; experiment: Test B flood; assay type: in vivo, Oryza sativa; details: 250 g ai/ha, visual rating on 0 to 100 scale (0 no effect, 100 complete control), 13 to 15 days
How it was run: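 Plants were grown to the 2-leaf stage, then pots were flooded to 3 cm above the soil and compounds were applied directly into the paddy water. Water depth was held for the whole test; after 13 to 15 days in a greenhouse, injury was visually rated against untreated controls (0 = no effect, 100 = complete control).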

[4] = test system: wheat; experiment: Test A preemergence; assay type: in vivo, Triticum aestivum; details: preemergence
How it was run: as §3

[5] = test system: pigweed; experiment: Test A postemergence; assay type: in vivo, Amaranthus retroflexus
How it was run: as §3

[6] = test system: morningglory; experiment: Test A preemergence; assay type: in vivo, Ipomoea spp.; details: preemergence
How it was run: as §3

[7] = test system: pigweed; experiment: Test A preemergence; assay type: in vivo, Amaranthus retroflexus; details: preemergence
How it was run: as §3

[8] = test system: corn; experiment: Test A preemergence; assay type: in vivo, Zea mays; details: preemergence
How it was run: as §3

[9] = test system: velvetleaf; experiment: Test A postemergence; assay type: in vivo, Abutilon theophrasti
How it was run: as §3

[10] = test system: crabgrass, large; experiment: Test A preemergence; assay type: in vivo, Digitaria sanguinalis; details: preemergence
How it was run: as §3

[11] = test system: morningglory; experiment: Test A postemergence; assay type: in vivo, Ipomoea spp.
How it was run: as §3

[12] = test system: ducksalad; experiment: Test B flood; assay type: in vivo, Heteranthera limosa; details: 250 g ai/ha, visual rating on 0 to 100 scale (0 no effect, 100 complete control), 13 to 15 days
Method: as §1, §2

[13] = test system: foxtail, giant; experiment: Test A preemergence; assay type: in vivo, Setaria faberii; details: preemergence
How it was run: as §3

[14] = test system: crabgrass, large; experiment: Test A postemergence; assay type: in vivo, Digitaria sanguinalis
How it was run: as §3

[15] = test system: foxtail, giant; experiment: Test A postemergence; assay type: in vivo, Setaria faberii
How it was run: as §3

[16] = test system: barnyardgrass; experiment: Test B flood; assay type: in vivo, Echinochloa crus-galli; details: 250 g ai/ha, visual rating on 0 to 100 scale (0 no effect, 100 complete control), 13 to 15 days
Method: as §1, §2

[17] = test system: velvetleaf; experiment: Test A preemergence; assay type: in vivo, Abutilon theophrasti; details: preemergence
How it was run: as §3

[18] = test system: barnyardgrass; experiment: Test A postemergence; assay type: in vivo, Echinochloa crus-galli
How it was run: as §3

[19] = test system: barnyardgrass; experiment: Test A preemergence; assay type: in vivo, Echinochloa crus-galli; details: preemergence
How it was run: as §3

[20] = test system: wheat; experiment: Test A postemergence; assay type: in vivo, Triticum aestivum
How it was run: as §3

[21] = Postemergence, 500 g ai/ha, visual rating after approx. 10 days, 0 to 100 scale (0 no effect, 100 complete control)
[22] = postemergence, 125 g ai/ha, about 10 days, visual rating on 0 to 100 scale (0 no effect, 100 complete control)
[23] = 125 g ai/ha, visual injury, 0 to 100 scale, approx. 10 days
[24] = 500 g ai/ha, visual injury after approx. 10 days, 0 to 100 scale (0 no effect, 100 complete control)
[25] = Postemergence, 125 g ai/ha, 0 to 100 scale, 0 no effect, 100 complete control

Compound	Plant response rating, Sedge, Umbrella [1]	Corn plant response rating [2, 21]	Corn plant response rating [2, 22]	Plant response rating, Rice [3]	Wheat plant response rating [4, 23]	Wheat plant response rating [4, 24]	Pigweed plant response rating [5, 21]	Pigweed plant response rating [5, 22]	Morningglory plant response rating [6, 23]	Morningglory plant response rating [6, 24]	Pigweed plant response rating [7, 23]	Pigweed plant response rating [7, 24]	Corn plant response rating [8, 23]	Corn plant response rating [8, 24]	Velvetleaf plant response rating [9, 21]	Velvetleaf plant response rating [9, 22]	Crabgrass, Large plant response rating [10, 23]	Crabgrass, Large plant response rating [10, 24]	Morningglory plant response rating [11, 21]	Morningglory plant response rating [11, 22]	also measured
CCc1cc(C(=O)NCC(F)(F)F)nn1Oc1cccc(C(F)(F)F)n1 [Compound 87]	0	0	0	0	0	0	10	0	0	10	0	40	0	0	10	0	0	80	20	10	Plant response rating, Ducksalad [12]: 0; Foxtail, Giant plant response rating [13, 23]: 0; Foxtail, Giant plant response rating [13, 24]: 0; Crabgrass, Large plant response rating [14, 21]: 10; Crabgrass, Large plant response rating [14, 22]: 0; Foxtail, Giant plant response rating [15, 21]: 0; Foxtail, Giant plant response rating [15, 22]: 0; Plant response rating, Barnyardgrass [16]: 0; Velvetleaf plant response rating [17, 23]: 0; Velvetleaf plant response rating [17, 24]: 0; Barnyardgrass plant response rating [18, 25]: 0; Barnyardgrass plant response rating [18, 21]: 0; Barnyardgrass plant response rating [19, 23]: 0; Barnyardgrass plant response rating [19, 24]: 0; Wheat plant response rating [20, 21]: 0; Wheat plant response rating [20, 22]: 0
CCCc1cc(C(=O)NCC(F)(F)F)nn1Oc1ccnc(C(F)(F)F)c1 [Compound 92]	50	40	0	0	0	20	40	0	0	20	40	100	0	40	20	0	20	100	40	0	Plant response rating, Ducksalad [12]: 50; Foxtail, Giant plant response rating [13, 23]: 20; Foxtail, Giant plant response rating [13, 24]: 100; Crabgrass, Large plant response rating [14, 21]: 30; Crabgrass, Large plant response rating [14, 22]: 0; Foxtail, Giant plant response rating [15, 21]: 50; Foxtail, Giant plant response rating [15, 22]: 0; Plant response rating, Barnyardgrass [16]: 0; Velvetleaf plant response rating [17, 23]: 0; Velvetleaf plant response rating [17, 24]: 0; Barnyardgrass plant response rating [18, 25]: 0; Barnyardgrass plant response rating [18, 21]: 40; Barnyardgrass plant response rating [19, 23]: 0; Barnyardgrass plant response rating [19, 24]: 90; Wheat plant response rating [20, 21]: 20; Wheat plant response rating [20, 22]: 0
CCCc1cc(C(=O)NC2CC2)nn1Oc1ccnc(C(F)(F)F)c1 [Compound 93]	50	90	0	0	0	30	60	20	0	50	30	100	0	80	20	0	70	100	60	0	Plant response rating, Ducksalad [12]: 50; Foxtail, Giant plant response rating [13, 23]: 30; Foxtail, Giant plant response rating [13, 24]: 100; Crabgrass, Large plant response rating [14, 21]: 80; Crabgrass, Large plant response rating [14, 22]: 20; Foxtail, Giant plant response rating [15, 21]: 80; Foxtail, Giant plant response rating [15, 22]: 20; Plant response rating, Barnyardgrass [16]: 0; Velvetleaf plant response rating [17, 23]: 0; Velvetleaf plant response rating [17, 24]: 0; Barnyardgrass plant response rating [18, 25]: 0; Barnyardgrass plant response rating [18, 21]: 40; Barnyardgrass plant response rating [19, 23]: 0; Barnyardgrass plant response rating [19, 24]: 90; Wheat plant response rating [20, 21]: 40; Wheat plant response rating [20, 22]: 20
CCc1cc(C(=O)NOC)nn1Cc1ccnc(C(F)(F)F)c1 [Compound 99]	75	90	50	0	0	60	100	70	60	100	90	100	50	90	90	20	100	100	100	50	Plant response rating, Ducksalad [12]: 50; Foxtail, Giant plant response rating [13, 23]: 90; Foxtail, Giant plant response rating [13, 24]: 100; Crabgrass, Large plant response rating [14, 21]: 100; Crabgrass, Large plant response rating [14, 22]: 60; Foxtail, Giant plant response rating [15, 21]: 100; Foxtail, Giant plant response rating [15, 22]: 60; Plant response rating, Barnyardgrass [16]: 0; Velvetleaf plant response rating [17, 23]: 10; Velvetleaf plant response rating [17, 24]: 80; Barnyardgrass plant response rating [18, 21]: 90; Barnyardgrass plant response rating [18, 22]: 20; Barnyardgrass plant response rating [19, 23]: 40; Barnyardgrass plant response rating [19, 24]: 100; Wheat plant response rating [20, 21]: 70; Wheat plant response rating [20, 22]: 20
CCc1cc(-c2ccc(F)cc2)nn1Cc1ccnc(C(F)(F)F)c1 [Compound 111]	90	50	10	20	0	0	100	80	0	30	20	100	0	0	90	40	90	100	100	90	Plant response rating, Ducksalad [12]: 0; Foxtail, Giant plant response rating [13, 23]: 90; Foxtail, Giant plant response rating [13, 24]: 100; Crabgrass, Large plant response rating [14, 21]: 100; Crabgrass, Large plant response rating [14, 22]: 30; Foxtail, Giant plant response rating [15, 21]: 100; Foxtail, Giant plant response rating [15, 22]: 40; Plant response rating, Barnyardgrass [16]: 15; Velvetleaf plant response rating [17, 23]: 10; Velvetleaf plant response rating [17, 24]: 30; Barnyardgrass plant response rating [18, 21]: 80; Barnyardgrass plant response rating [18, 22]: 20; Barnyardgrass plant response rating [19, 23]: 10; Barnyardgrass plant response rating [19, 24]: 90; Wheat plant response rating [20, 21]: 30; Wheat plant response rating [20, 22]: 10
